Results taken from patent US12612408B2, “Pyrazolone-fused pyrimidine compound, preparation method for same and applications thereof” (SHANGHAI PHARMACEUTICALS HOLDING CO., LTD., priority 2019, dated 2026).
Each block holds one molecule with its values, some of them ahead of it.

Columns and labels:
WEE1 kinase = target: T1, WEE1 kinase (Homo sapiens, UniProt P30291); test: Inhibitory effect of compound on WEE1 kinase in vitro (ELISA); type: biochemical; settings: ATP concentration of Km
T1 construct: purchased CarnaBiosciences, Inc. 05-177
T1 sequence (P30291 whole entry): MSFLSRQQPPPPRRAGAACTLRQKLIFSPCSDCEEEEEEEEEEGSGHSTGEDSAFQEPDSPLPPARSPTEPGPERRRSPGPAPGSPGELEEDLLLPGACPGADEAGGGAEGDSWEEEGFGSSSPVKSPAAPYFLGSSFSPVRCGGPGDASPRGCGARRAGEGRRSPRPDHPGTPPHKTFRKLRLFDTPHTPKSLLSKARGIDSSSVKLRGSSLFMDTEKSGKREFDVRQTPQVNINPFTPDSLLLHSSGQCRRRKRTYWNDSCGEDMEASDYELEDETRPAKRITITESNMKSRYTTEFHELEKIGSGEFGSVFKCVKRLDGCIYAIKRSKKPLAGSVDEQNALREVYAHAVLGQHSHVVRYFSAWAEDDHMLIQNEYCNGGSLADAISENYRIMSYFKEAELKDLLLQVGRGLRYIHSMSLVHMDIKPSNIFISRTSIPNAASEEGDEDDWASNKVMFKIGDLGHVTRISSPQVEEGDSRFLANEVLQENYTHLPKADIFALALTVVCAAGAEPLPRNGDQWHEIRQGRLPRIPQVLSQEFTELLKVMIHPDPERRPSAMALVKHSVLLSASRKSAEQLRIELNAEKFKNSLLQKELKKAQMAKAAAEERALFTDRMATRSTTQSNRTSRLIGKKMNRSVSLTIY
Method: The tested compounds were screened on WEE1 kinase with ATP concentration of Km by ELISA. Compounds were screened on WEE1 kinase to evaluate the kinase inhibitory activity of the tested compounds. In the detection process, the initial concentration of the tested compounds was all selected as 100 nM, and each compound was selected with 6 gradient dilution concentrations, the gradient dilution ratio was 4-fold, and two replicate wells were detected for each concentration, MK1775 was used as the standard control.
WEE1, purchased from CarnaBiosciences, Inc., Item No. 05-177; dimethyl sulfoxide, purchased from Sigma-Aldrich, Item No. D8418; ATP, purchased from Sigma-Aldrich, Item No. A7699; DTT solution, purchased from Sigma-Aldrich, Item No. 43816; protein tyrosine kinase (PTK) substrate (poly-Glu-Tyr), purchased from Sigma-Aldrich, Item No. P4476; P-Tyr (PY99), purchased from Santa Cruz, Item No. sc-7020; Anti-mouse IgG HRP-linked Antibody, purchased from Santa Cruz, Item No. 7076S; TMB liquid Substrate System, purchased from Sigma-Aldrich, Item No. T0440; Costar Stripwell Microplate No Lid 1×8 Flat Bottom, Certified High Binding, purchased from Sigma-Aldrich, Item No. 42592; 96-well compound plate, purchased from Thermo Scientific, Item No. 267245.
• 1. Coating substrate: 1) An appropriate volume of substrate storage solution protein tyrosine kinase (PTK) substrate (poly-Glu-Tyr) was taken, diluted 10 times with PBS, and the concentration was diluted from […]. The mixture was added to a high adsorption 96-well plate at 125 μL per well. The plate was placed in an incubator at 37° C. for overnight coating. 2) After 24 hours, the 96-well plate was taken out, the liquid in the 96-well plate was poured out, cleaned with washing buffer for 3 times, and the incubator at 37° C. was inverted and dried for 2 hours. • 2. Compound preparation and transfer: 1) compound dilution: 10 mM of the test compound storage solution was taken, the compound in 96-well compound plate was diluted with DMSO in multiple steps to obtain the initial concentration of 100× compound as the first concentration, and then DMSO was used for 4-fold gradient dilution, for a total of 6 concentrations; after that, 2 μL of the gradient dilution solution was added to 48 μL of 1× reaction buffer respectively to prepare 4× compound; 2) 4× compounds were transferred: 10 μL of 4× compounds from the 96-well compound plate configured in the previous step were transferred into the dried high adsorption 96-well plate; 10 μL of the following liquids were added to the compound-free control wells and ATP-control wells: 2 μL of DMSO was added to 48 μL of 1× reaction buffer. • 3. Enzyme reaction stage: 1) WEE1 kinase and ATP were prepared into 2× enzyme solution and 4×ATP solution respectively with 1× reaction buffer. In this screening, the final concentration of WEE1 kinase was: 0.15 ng/μL and the final concentration of ATP was: […]; 2) 20 μL of enzyme solution of 2 was added to the high adsorption 96-well plate; 3) 10 μL of 4×ATP solution was added to the high adsorption 96-well plate and 10 μL of 1× reaction buffer was added to the ATP-control group; 4) the plate was placed in HERAEUS Multifuge X1R centrifuge at 2000 rpm for 20 s and then placed at room temperature and reacted for 60 min. • 4. Reaction termination stage: 1) the reaction mixture in the plate was poured out, 200 μL of washing buffer was added to each well, and washed for 5 times; the primary antibody P-Tyr (PY99) (dilution ratio 1:2000) was added, 100 μL per well, at room temperature for 30 min. 2) The primary antibody in the plate was poured out, 200 μL of washing buffer was added to each well, and washed for 5 times; the second antibody Anti-mouse IgG HRP-linked Antibody (dilution ratio 1:2000) was added, 100 μL per well, at room temperature for 30 min.

[1] = Bioavailability test in vivo in mice (pharmacokinetics, iv and intragastric); set-up: species or system ICR mice
Method: 404.6 μL of DMSO was added to the compound powder of the present disclosure until the compound was completely dissolved, and 50 mg/mL mother liquor was prepared in a clarified state.
The compound of the present disclosure: 24 μL of mother liquor was accurately measured, diluted to 4 mL according to the ratio of 0.9% normal saline:PEG400=8:2, the preparation concentration was 0.3 mg/mL, the solution was in a clarified state, and it was used as intravenous administration solution. In addition, 80 μL mother liquor was accurately measured, and 0.5% CMC-Na was added to 8 mL to grind it into a uniform suspension with a concentration of 0.5 mg/mL, which was used as intragastric administration solution.
(§1) Intravenous group: 24 ICR mice, 20±2 g, were given the intravenous administration solution of the compound of the present disclosure by intravenous injection, with the volume of 10 mL/kg, with the dose of 3 mg/kg, the blood was taken from the fundus venous plexus of mice, 2, 5, 15, 30, 60, 90, 120, 240, 360, 480, 600 and 1440 minutes before and after administration.
as §1, with “Intragastric group:” for “Intravenous group:”, “the intragastric” for “the intravenous”, “by intragastric” for “by intravenous”, “of 20” for “of 10”, “of 10” for “of 3”, “mice,” for “mice, 2,”
Blood sample was centrifuged at 8000 rpm for 5 min, and the plasma was stored in a centrifuge tube at −20° C. for later use.
300 μL of acetonitrile containing internal standard (Propranolol, 25 ng/mL) was added to 50 μL of plasma samples to precipitate protein, vortexed for 10 min, 6000 g, 4° C., centrifuged for 10 min; the supernatant before intravenous injection for 1 hour was taken, diluted 10 times with acetonitrile containing internal standard, the rest supernatant was kept undiluted, centrifuged for 10 min again at 6000 g, 4° C., and the supernatant was taken and then injected into a 96-well plate.
(§2) Dose; peak concentration: Cmax; peak time: Tmax; area under the drug-time curve from AUClast 0 to time t; half-life: T1/2; mean retention time: MRT; clearance: Cl; apparent distribution volume: Vz; steady-state distributed volume: Vss; absolute bioavailability: F.
The pharmacokinetic parameters of the compound in mice after intravenous injection or intragastric administration were shown in Table 4 and Table 5 below.

[2] = Bioavailability test in vivo in cynomolgus monkey (pharmacokinetics, IV and PO); settings: cynomolgus monkeys
Method: Twelve male Non-Naïve cynomolgus monkeys were purchased from GuangxiGuidong Primate Development Experiment Co. LTD.
(§3) 54.31 mg of I-8-1 was accurately weighed, and 1.08 mL of DMSO was added, then the mixture was vortexed for 1 min, sonicated for 15 min, and then diluted to 36 mL according to the ratio of 10% HP-β-cyclodextrin (prepared by normal saline): PEG=8:2, vortexed for 1 min. A colorless clarified administration solution (the pH value was about 7) at a concentration of 1.5 mg/mL was prepared for intravenous administration to Group 1.
300.9 mg of I-8-1 was accurately weighed, and 75 mL of 0.5% CMC-Na was added, the mixture was fully ground and stirred for 5 min. A white suspension (the pH value was about 7) at a concentration of 4 mg/mL was prepared for oral administration to Group 2.
as §3, with “54.05 mg” for “54.31 mg”, “of AZD1775” for “of I-8-1”, “then he” for “then the”, “of 10%-D-cyclodextrin” for “of 10% HP-β-cyclodextrin”, “A yellow” for “A colorless”, “Group 3.” for “Group 1.”
300.7 mg of AZD1775 was accurately weighed, and 75 mL of 0.5% CMC-Na was added, the mixture was fully ground and stirred for 5 min. A yellow suspension (the pH value was about 7) at a concentration of 4 mg/mL was prepared for oral administration to Group 4.
Before administration, all animals were fasted overnight (approximately 12 hours) and fed as required and administered according to the table below.
Intravenous group: before administration (0 h), 0.033 h, 0.083 h, 0.25 h, 0.5 h, 1 h, 1.5 h, 2 h, 4 h, 6 h, 8 h, 12 h, 24 h after administration.
Oral group: before administration (0 h), 0.083 h, 0.25 h, 0.5 h, […], 2 h, 4 h, 6 h, 8 h, 12 h, 24 h after administration.
Blood samples were collected by puncture through lower limb vein or other suitable blood vessels at 1 mL/time point (3 mL of blood samples were collected from each animal before administration), anticoagulated with heparin sodium, and placed on ice after collection. Plasma was separated at 2200 g/min, 10 min, 2-8° C., plasma samples were stored in a −80° C. refrigerator before being transferred to the client. Plasma samples are stored in dry ice and transferred to the client. The final treatment of the sample will be recorded in the experimental record.
300 μL of acetonitrile was added to 50 μL of plasma samples containing internal standard (Propranolol, 25 ng/mL) to precipitate protein, vortexed for 10 min, centrifuged at 6000 g for 10 min, after I-8-1&AZD1775 intravenous injection group was diluted 10 times with internal standard acetonitrile (Propranolol, 25 ng/mL) at the time point before 1 hour, the remaining supernatant was not diluted, centrifuged again at 6000 g at 4° C. for 10 min, and the supernatant was taken and injected into a 96 well plate.
as §2
The pharmacokinetic parameters of the compound in cynomolgus monkeys after intravenous injection or intragastric administration were shown in Table 6 below.

[3] = ICR, mouse, plasma, iv, 3 mg/kg
[4] = ICR, mouse, plasma, po (intragastric), 10 mg/kg
[5] = male, cynomolgus monkey, plasma, iv, 3 mg/kg
[6] = male, cynomolgus monkey, plasma, po, 20 mg/kg, fasted

Structure (SMILES): C=CCn1c(=O)c2cnc(Nc3ccc(C4CCC(N5CCC5)CC4)cc3)nc2n1-c1cccc(C(C)(C)O)n1 (single isomer, unassigned) [Compound I-8-2]
- IC50 (WEE1 kinase): 3.52 nM

Structure (SMILES): C=CCn1c(=O)c2cnc(Nc3ccc(C4CCC(N5CCCC5)CC4)cc3)nc2n1-c1cccc(C(C)(C)O)n1 (single isomer, unassigned) [Compound I-3-2]
- IC50 (WEE1 kinase): 0.66 nM

Structure (SMILES): C=CCn1c(=O)c2cnc(Nc3ccc(C4CCC(N5CCCC5)CC4)cc3)nc2n1-c1cccc(C(C)(C)O)n1 (single isomer, unassigned) [Compound I-3-1]
- IC50 (WEE1 kinase): 0.35 nM

Structure (SMILES): C=CCn1c(=O)c2cnc(Nc3ccc(N4CCN(C)CC4)cc3)nc2n1-c1cccc(C(C)(C)O)n1 [Control 1, reference compound]
- Cmax [1, 3]: 774 ± 53.8 ng/mL
- MRT [1, 3]: 0.42 ± 0.02 h
- Tmax [1, 3]: 0.05 ± 0.03 h
- clearance [1, 3]: 183 mL/min/kg
- half-life [1, 3]: 0.65 ± 0.03 h
- Vd ([1]; ICR, mouse, plasma, iv, 3 mg/kg, iv, 3 mg/kg, read-out: Vss): 4.58 ± 0.44 L/kg
- Vd ([1]; ICR, mouse, plasma, iv, 3 mg/kg, iv, 3 mg/kg, read-out: Vz): 10.3 ± 1.12 L/kg
- bioavailability ([1]; ICR, mouse, plasma, po 10 mg/kg vs iv 3 mg/kg, read-out: F (absolute bioavailability)): 16.7%
- Cmax [1, 4]: 205 ± 124 ng/mL
- MRT [1, 4]: 4.33 ± 0.28 h
- Tmax [1, 4]: 0.33 ± 0.14 h
- half-life [1, 4]: 3.1 ± 0.22 h
- AUClast ([1]; iv, 3 mg/kg): 273.1 ± 21.34 (h) (ng/mL)
- AUClast ([1]; po (intragastric), 10 mg/kg): 151.7 ± 62.14 (h) (ng/mL)
- AUCextra ([2]; iv, 3 mg/kg): 47.62 ± 58.18 (h)*(ng/mL)
- AUClast ([2]; iv, 3 mg/kg): 4494 ± 1719 (h)*(ng/mL)
- AUCtot ([2]; iv, 3 mg/kg): 4542 ± 1777 (h)*(ng/mL)
- thalf ([2]; iv, 3 mg/kg): 2.78 ± 0.26 h
- AUCextra ([2]; po, 20 mg/kg, fasted): 8.46 ± 1.91 (h)*(ng/mL)
- AUClast ([2]; po, 20 mg/kg, fasted): 8155 ± 818.2 (h)*(ng/mL)
- AUCtot ([2]; po, 20 mg/kg, fasted): 8163 ± 819.7 (h)*(ng/mL)
- thalf ([2]; po, 20 mg/kg, fasted): 2.03 ± 1.22 h
- Vd ([2]; male, cynomolgus monkey, plasma, iv, 3 mg/kg, iv, 3 mg/kg, read-out: Vss): 4.33 ± 0.74 L/kg
- Vd ([2]; male, cynomolgus monkey, plasma, iv, 3 mg/kg, iv, 3 mg/kg, read-out: Vz): 2.84 ± 0.76 L/kg
- Cmax [2, 5]: 1200 ± 134 ng/mL
- MRT [2, 5]: 6.53 ± 2.51 h
- Tmax [2, 5]: 2.69 ± 4.6 h
- clearance [2, 5]: 12 mL/min/kg
- bioavailability ([2]; male, cynomolgus monkey, plasma, po 20 mg/kg vs iv 3 mg/kg, read-out: BA (absolute bioavailability)): 27.2%
- Cmax [2, 6]: 1630 ng/mL
- MRT [2, 6]: 3.58 ± 0.07 h
- Tmax [2, 6]: 2 h

Other lines, results leading:

- IC50 (WEE1 kinase): 3.89 nM
Structure (SMILES): C=CCn1c(=O)c2cnc(Nc3ccc(C4CCC(NS(C)(=O)=O)CC4)cc3)nc2n1-c1cccc(C(C)(C)O)n1 (centres unmarked) [Compound I-19, N-(4-(4-((2-allyl-1-(6-(2-hydroxypropan-2-yl)pyridin-2-yl)-3-oxo-2,3-dihydro-1H-pyrazolo[3,4-d]pyrimidin-6-yl)amino)phenyl)cyclohexyl)methanesulfonamide]

- IC50 (WEE1 kinase): 0.71 nM
Structure (SMILES): C=CCn1c(=O)c2cnc(Nc3ccc(C4CCC(C#N)CC4)cc3)nc2n1-c1cccc(C(C)(C)O)n1 (centres unmarked) [Compound I-23]

- IC50 (WEE1 kinase): 7.15 nM
Structure (SMILES): C=CCn1c(=O)c2cnc(Nc3ccc(C4CCC(C(=O)O)CC4)cc3)nc2n1-c1cccc(C(C)(C)O)n1 (centres unmarked) [Compound I-5, 4-(4-((2-allyl-1-(6-(2-hydroxypropan-2-yl)pyridin-2-yl)-3-oxo-2,3-dihydro-1H-pyrazolo[3,4-d]pyrimidin-6-yl)amino)phenyl)cyclohexane-1-carboxylic acid]

- IC50 (WEE1 kinase): 7.39 nM
Structure (SMILES): C=CCn1c(=O)c2cnc(Nc3ccc(C4CCC(=NOC)CC4)cc3)nc2n1-c1cccc(C(C)(C)O)n1 (centres unmarked) [Compound I-32]

- IC50 (WEE1 kinase): 2.08 nM
Structure (SMILES): C=CCn1c(=O)c2cnc(Nc3ccc(C4CCC(C(=O)OCC)CC4)cc3)nc2n1-c1cccc(C2(O)COC2)n1 (centres unmarked) [Compound I-39]

- IC50 (WEE1 kinase): 4.05 nM
Structure (SMILES): C=CCn1c(=O)c2cnc(Nc3ccc(C4CCC(C(=O)NC5CC5)CC4)cc3)nc2n1-c1cccc(C(C)(C)O)n1 (centres unmarked) [Compound I-17]
